Results reported in patent US9861680B2, “Immunomodulators” (BRISTOL-MYERS SQUIBB COMPANY, priority 2014, dated 2018).
Numbered stars: 1 amine (or outer) side, 2 acyl side, 3 side chain; on linkers, the order of the positions; unused ones are H or OH. Bridge positions count the residues as written; N and C are the ends. Square brackets hold non-standard residues; d marks the D form. Peptide text beside a SMILES is read from it. X4 = NC(=O)C[C@H](N[*:1])C(=O)C1CCC[C@H]1C(=O)[*:2]; X7 = COCCN([C@@H](C)C(=O)[*:2])[*:1]; X2 = C[C@@H](C(=O)[*:2])N(CCN)[*:1]; Gly(N-2-aminoethyl) = NCCNCC(=O)O; NBnAla = C[C@H](NCc1ccccc1)C(=O)O; Hyp = O=C(O)[C@@H]1C[C@@H](O)CN1; Gly(N-CH2CH2OH) = O=C(O)CNCCO; NMeNle = CCCC[C@H](NC)C(=O)O; NEtAla = CCN[C@@H](C)C(=O)O; NMeA = CN[C@@H](C)C(=O)O; Nphe = O=C(O)CNCc1ccccc1; Dab = NCC[C@H](N)C(=O)O; Nme = COCCNCC(=O)O; NEtG = CCNCC(=O)O

Biological target: T1, PD-1-Ig binding to PD-L1-TVMV-His (PD-L1-His) (Homo sapiens, UniProt Q9NZQ7)
T1 construct: hPDL1(19-239)-TVMV-His; made in house; host or cells: HEK293T
Assay: PD-1/PD-L1 Homogenous Time-Resolved Fluorescence (HTRF) binding assay
Conditions: PD-L1-His 10 nM, PD-1-Ig 20 nM
Source text: Methods for Testing the Ability of Macrocyclic Peptides to Compete for the Binding of Pd-1 to Pd-L1 Using Homogenous Time-Resolved Fluorescence (HTRF) Binding Assays
The ability of the macrocyclic peptides of the present disclosure to bind to PD-L1 was investigated using a PD-1/PD-L1 Homogenous Time-Resolved Fluorescence (HTRF) binding assay.
Homogenous Time-Resolved Fluorescence (HTRF) Assays of Binding of Soluble PD-1 to Soluble PD-L1. Soluble PD-1 and soluble PD-L1 refers to proteins with carboxyl-end truncations that remove the transmembrane-spanning regions and are fused to heterologous sequences, specifically the Fc portion of the human immunoglobuling G sequence (Ig) or the hexahistidine epitope tag (His). All binding studies were performed in an HTRF assay buffer consisting of dPBS supplemented with 0.1% (w/v) bovine serum albumin and 0.05% (v/v) Tween-20. For the PD-1-Ig/PD-L1-His binding assay, inhibitors were pre-incubated with PD-L1-His (10 nM final) for 15 m in 4 μl of assay buffer, followed by addition of PD-1-Ig (20 nM final) in 1 μl of assay buffer and further incubation for 15 m. PD-L1 fusion proteins from either human, cynomologous macaques, mouse, or other species were used. HTRF detection was achieved using europium crypate-labeled anti-Ig monoclonal antibody (1 nM final) and allophycocyanin (APC) labeled anti-His monoclonal antibody (20 nM final). Antibodies were diluted in HTRF detection buffer and 5 μl was dispensed on top of binding reaction. The reaction was allowed to equilibrate for 30 minutes and signal (665 nm/620 nm ratio) was obtained using an EnVision fluorometer. Additional binding assays were established between PD-1-Ig/PD-L2-His (20 and 5 nM, respectively), CD80-His/PD-L1-Ig (100 and 10 nM, respectively) and CD80-His/CTLA4-Ig (10 and 5 nM, respectively). Binding/competition studies between biotinylated Compound No. 71 and human PD-L1-His were performed as follows. Macrocyclic peptide inhibitors were pre-incubated with PD-L1-His (10 nM final) for 60 minutes in 4 μl of assay buffer followed by addition of biotinylated Compound No. 71 (0.5 nM final) in 1 μl of assay buffer. Binding was allowed to equilibrate for 30 minutes followed by addition of europium crypated labeled Streptavidin (2.5 pM final) and APC-labeled anti-His (20 nM final) in 5 μl of HTRF buffer. The reaction was allowed to equilibrate for 30 m and signal (665 nm/620 nm ratio) was obtained using an EnVision fluorometer.
Recombinant Proteins. Carboxyl-truncated human PD-1 (amino acids 25-167) with a C-terminal human Ig epitope tag [hPD-1 (25-167)-3S-IG] and human PD-L1 (amino acids 18-239) with a C-terminal His epitope tag [hPD-L1(19-239)-tobacco vein mottling virus protease cleavage site (TVMV)-His] were expressed in HEK293T cells and purified sequentially by recombinant Protein A affinity chromatography and size exclusion chromatography. Human PD-L2-His (Sino Biologicals), CD80-His (Sino Biologicals), CTLA4-Ig (RnD Systems) were all obtained through commercial sources.
Ranges are as follows: A=0.10-10 μM; B=0.01-0.099 μM; C=0.005-0.0099 μM.

T1 sequence (Q9NZQ7 with tags, fused parts or gaps): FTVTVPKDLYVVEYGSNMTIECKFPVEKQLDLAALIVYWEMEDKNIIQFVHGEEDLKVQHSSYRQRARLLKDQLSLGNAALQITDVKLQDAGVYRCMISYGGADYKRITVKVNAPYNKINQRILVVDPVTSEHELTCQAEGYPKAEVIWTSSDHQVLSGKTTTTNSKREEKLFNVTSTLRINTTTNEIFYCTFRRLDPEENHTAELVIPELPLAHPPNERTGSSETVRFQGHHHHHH

Compound | IC50 (range class) [nM] | IC50 (numeric value) [nM]
CCCC[C@H]1C(=O)N(C)[C@@H](CCCC)C(=O)N[C@@H](CC(C)C)C(=O)N[C@H](C(=O)NCC(N)=O)CSCC(=O)N[C@@H](Cc2ccc(O)cc2)C(=O)N(C)[C@@H](C)C(=O)N[C@@H](CC(N)=O)C(=O)N2CCC[C@H]2C(=O)N[C@@H](Cc2cnc[nH]2)C(=O)N[C@@H](CCC(=O)O)C(=O)N(Cc2ccccc2)CC(=O)N[C@@H](Cc2c[nH]c3ccccc23)C(=O)N[C@@H](CCN)C(=O)N[C@@H](Cc2c[nH]c3ccccc23)C(=O)N1C [Example 3004] ({CH2CO}-Y[NMeA]NPHE[Nphe]W[Dab]W[NMeNle][NMeNle]LCG-NH2; thioether N-14) | 10 to 99 | 
CCCC[C@H]1C(=O)N(C)[C@@H](CCCC)C(=O)N[C@@H](CC(C)C)C(=O)N[C@H](C(=O)NCC(N)=O)CSCC(=O)N[C@@H](Cc2ccc(O)cc2)C(=O)N(C)[C@@H](C)C(=O)N[C@@H](CC(N)=O)C(=O)N(Cc2ccccc2)CC(=O)N[C@@H](Cc2cnc[nH]2)C(=O)N[C@@H](CCC(=O)O)C(=O)N2C[C@H](O)C[C@H]2C(=O)N[C@@H](Cc2c[nH]c3ccccc23)C(=O)N[C@@H](CCN)C(=O)N[C@@H](Cc2c[nH]c3ccccc23)C(=O)N1C [Example 3008] ({CH2CO}-Y[NMeA]N[Nphe]HE[Hyp]W[Dab]W[NMeNle][NMeNle]LCG-NH2; thioether N-14) |  | 200
CCCC[C@H]1C(=O)N(C)[C@@H](CCCC)C(=O)N[C@@H](CC(C)C)C(=O)N[C@H](C(=O)NCC(N)=O)CSCC(=O)N[C@@H](Cc2ccc(O)cc2)C(=O)N(C)[C@@H](C)C(=O)N[C@@H](CC(N)=O)C(=O)N(CCO)CC(=O)N[C@@H](Cc2cnc[nH]2)C(=O)N[C@@H](CCC(=O)O)C(=O)N2C[C@H](O)C[C@H]2C(=O)N[C@@H](Cc2c[nH]c3ccccc23)C(=O)N[C@@H](CCN)C(=O)N[C@@H](Cc2c[nH]c3ccccc23)C(=O)N1C [Example 3016] ({CH2CO}-Y[NMeA]N[Gly(N-CH2CH2OH)]HE[Hyp]W[Dab]W[NMeNle][NMeNle]LCG-NH2; thioether N-14) | 10 to 99 | 
CCCC[C@H]1C(=O)N(C)[C@@H](CCCC)C(=O)N[C@@H](CC(C)C)C(=O)N[C@H](C(=O)NCC(N)=O)CSCC(=O)N[C@@H](Cc2ccc(O)cc2)C(=O)N(C)[C@@H](C)C(=O)N[C@@H](CC(N)=O)C(=O)N2CCC[C@H]2C(=O)N[C@@H](Cc2cnc[nH]2)C(=O)N[C@@H](CCC(=O)O)C(=O)N(CCOC)CC(=O)N[C@@H](Cc2c[nH]c3ccccc23)C(=O)N[C@@H](CCN)C(=O)N[C@@H](Cc2c[nH]c3ccccc23)C(=O)N1C [Example 3006] ({CH2CO}-Y[NMeA]NPHE[Nme]W[Dab]W[NMeNle][NMeNle]LCG-NH2; thioether N-14) | 10 to 99 | 
CCCC[C@H]1C(=O)N(CC)[C@@H](C)C(=O)N[C@@H](CC(C)C)C(=O)N[C@H](C(=O)NCC(N)=O)CSCC(=O)N[C@@H](Cc2ccc(O)cc2)C(=O)N(C)[C@@H](C)C(=O)N[C@@H](CC(N)=O)C(=O)C2CCC[C@H]2C(=O)N[C@@H](Cc2cnc[nH]2)C(=O)N[C@@H](CCC(=O)O)C(=O)N2C[C@H](O)C[C@H]2C(=O)N[C@@H](Cc2c[nH]c3ccccc23)C(=O)N[C@@H](CCN)C(=O)N[C@@H](Cc2c[nH]c3ccccc23)C(=O)N1C (stereo partly shown) [Example 3020] ({CH2CO}-Y[NMeA][X4]HE[Hyp]W[Dab]W[NMeNle][NEtAla]LCG-NH2; thioether N-13) | 5 to 9.9 | 
CCCC[C@H]1C(=O)N(C)[C@@H](CCCC)C(=O)N[C@@H](CC(C)C)C(=O)N[C@H](C(=O)NCC(N)=O)CSCC(=O)N[C@@H](Cc2ccc(O)cc2)C(=O)N(CCOC)[C@@H](C)C(=O)N[C@@H](CC(N)=O)C(=O)N2CCC[C@H]2C(=O)N[C@@H](Cc2cnc[nH]2)C(=O)N[C@@H](CCC(=O)O)C(=O)N2C[C@H](O)C[C@H]2C(=O)N[C@@H](Cc2c[nH]c3ccccc23)C(=O)N[C@@H](CCN)C(=O)N[C@@H](Cc2c[nH]c3ccccc23)C(=O)N1C [Example 3026] ({CH2CO}-Y[X7]NPHE[Hyp]W[Dab]W[NMeNle][NMeNle]LCG-NH2; thioether N-14) | 10 to 99 | 
CCCC[C@H]1C(=O)N(C)[C@@H](CCCC)C(=O)N[C@@H](CC(C)C)C(=O)N[C@H](C(=O)NCC(N)=O)CSCC(=O)N[C@@H](Cc2ccc(O)cc2)C(=O)N(C)[C@@H](C)C(=O)N[C@@H](CC(N)=O)C(=O)N(CC)CC(=O)N[C@@H](Cc2cnc[nH]2)C(=O)N[C@@H](CCC(=O)O)C(=O)N2C[C@H](O)C[C@H]2C(=O)N[C@@H](Cc2c[nH]c3ccccc23)C(=O)N[C@@H](CCN)C(=O)N[C@@H](Cc2c[nH]c3ccccc23)C(=O)N1C [Example 3013] ({CH2CO}-Y[NMeA]N[NEtG]HE[Hyp]W[Dab]W[NMeNle][NMeNle]LCG-NH2; thioether N-14) | 10 to 99 | 
CCCC[C@H]1C(=O)N(C)[C@@H](CCCC)C(=O)N[C@@H](CC(C)C)C(=O)N[C@H](C(=O)NCC(N)=O)CSCC(=O)N[C@@H](Cc2ccc(O)cc2)C(=O)N(C)[C@@H](C)C(=O)N[C@@H](CC(N)=O)C(=O)N(CC(=O)O)CC(=O)N[C@@H](Cc2cnc[nH]2)C(=O)N[C@@H](CCC(=O)O)C(=O)N2C[C@H](O)C[C@H]2C(=O)N[C@@H](Cc2c[nH]c3ccccc23)C(=O)N[C@@H](CCN)C(=O)N[C@@H](Cc2c[nH]c3ccccc23)C(=O)N1C [Example 3015] | 10 to 99 | 
CCCC[C@H]1C(=O)N[C@@H](CC(C)C)C(=O)N[C@H](C(=O)NCC(N)=O)CSCC(=O)N[C@@H](Cc2ccc(O)cc2)C(=O)N(C)[C@@H](C)C(=O)N[C@@H](CC(N)=O)C(=O)N2CCC[C@H]2C(=O)N[C@@H](Cc2cnc[nH]2)C(=O)N[C@@H](CCC(=O)O)C(=O)N2C[C@H](O)C[C@H]2C(=O)N[C@@H](Cc2c[nH]c3ccccc23)C(=O)N[C@@H](CCN)C(=O)N[C@@H](Cc2c[nH]c3ccccc23)C(=O)N(Cc2ccccc2)[C@@H](C)C(=O)N1C [Example 3029] ({CH2CO}-Y[NMeA]NPHE[Hyp]W[Dab]W[NBnAla][NMeNle]LCG-NH2; thioether N-14) | 100 to 10000 | 
CCCC[C@H]1C(=O)N[C@@H](CC(C)C)C(=O)N[C@H](C(=O)NCC(N)=O)CSCC(=O)N[C@@H](Cc2ccc(O)cc2)C(=O)N(C)[C@@H](C)C(=O)N[C@@H](CC(N)=O)C(=O)N2CCC[C@H]2C(=O)N[C@@H](Cc2cnc[nH]2)C(=O)N[C@@H](CCC(=O)O)C(=O)N2C[C@H](O)C[C@H]2C(=O)N[C@@H](Cc2c[nH]c3ccccc23)C(=O)N[C@@H](CCN)C(=O)N[C@@H](Cc2c[nH]c3ccccc23)C(=O)N(CCN)[C@@H](C)C(=O)N1C [Example 3022] ({CH2CO}-Y[NMeA]NPHE[Hyp]W[Dab]W[X2][NMeNle]LCG-NH2; thioether N-14) | 10 to 99 | 
CCCC[C@H]1C(=O)N(C)[C@@H](CCCC)C(=O)N[C@@H](CC(C)C)C(=O)N[C@H](C(=O)NCC(N)=O)CSCC(=O)N[C@@H](Cc2ccc(O)cc2)C(=O)N(C)[C@@H](C)C(=O)N[C@@H](CC(N)=O)C(=O)N(CCN)CC(=O)N[C@@H](Cc2cnc[nH]2)C(=O)N[C@@H](CCC(=O)O)C(=O)N2C[C@H](O)C[C@H]2C(=O)N[C@@H](Cc2c[nH]c3ccccc23)C(=O)N[C@@H](CCN)C(=O)N[C@@H](Cc2c[nH]c3ccccc23)C(=O)N1C [Example 3014] ({CH2CO}-Y[NMeA]N[Gly(N-2-aminoethyl)]HE[Hyp]W[Dab]W[NMeNle][NMeNle]LCG-NH2; thioether N-14) | 10 to 99 | 
CCCC[C@H]1C(=O)N(C)[C@@H](CCCC)C(=O)N[C@@H](CC(C)C)C(=O)N[C@H](C(=O)NCC(N)=O)CSCC(=O)N[C@@H](Cc2ccc(O)cc2)C(=O)N(CC(=O)O)CC(=O)N[C@@H](CC(N)=O)C(=O)N2CCC[C@H]2C(=O)N[C@@H](Cc2cnc[nH]2)C(=O)N[C@@H](CCC(=O)O)C(=O)N2C[C@H](O)C[C@H]2C(=O)N[C@@H](Cc2c[nH]c3ccccc23)C(=O)N[C@@H](CCN)C(=O)N[C@@H](Cc2csc3ccccc23)C(=O)N1C [Example 5003] | 10 to 99 | 
CCCC[C@H]1C(=O)N(C)[C@@H](CCCC)C(=O)N[C@@H](CC(C)C)C(=O)N[C@H](C(=O)NCC(N)=O)CSCC(=O)N[C@@H](Cc2ccc(O)cc2)C(=O)N(C)[C@@H](C)C(=O)N[C@@H](CC(N)=O)C(=O)N2CCC[C@H]2C(=O)N[C@@H](Cc2cnc[nH]2)C(=O)N[C@@H](CCC(=O)O)C(=O)N(CC(=O)O)CC(=O)N[C@@H](Cc2c[nH]c3ccccc23)C(=O)N[C@@H](CCN)C(=O)N[C@@H](Cc2c[nH]c3ccccc23)C(=O)N1C [Example 3005] |  | 30
